Results from publication PMC10504751, “Chalcone/1,3,4-Oxadiazole/Benzimidazole hybrids as novel anti-proliferative agents inducing apoptosis and inhibiting EGFR & BRAFV^600E” (BMC Chemistry, 2023).
Where two headings read alike, the source gives them in different places.

What was measured:
Experiment in all cases: NCI one-dose SRB anti-proliferative screen
Format in all cases: cell-based
A549/ATCC = conditions: Homo sapiens, read-out: Cell growth inhibition %
In short: (§1)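 Read-out: sulforhodamine B protein stain measured colorimetrically after exposure of the cells to test compound at 10 µM. This line formed one member of a 60-line panel spanning lung, leukaemia, melanoma, colon, renal, CNS, prostate, breast and ovarian origins.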

COLO 205 = conditions: Homo sapiens, read-out: Cell growth inhibition %
In short: as §1

DU-145 = conditions: Homo sapiens, read-out: Cell growth inhibition %
In short: as §1

HCC-2998 = conditions: Homo sapiens, read-out: Cell growth inhibition %
In short: as §1

HCT-15 = conditions: Homo sapiens, read-out: Cell growth inhibition %
In short: as §1

HL-60(TB) = conditions: Homo sapiens, read-out: Cell growth inhibition %
In short: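 Activity reflects a single-point exposure at 10 µM, with cell mass determined by a sulforhodamine B dye assay.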

HOP-92 = conditions: Homo sapiens, read-out: Cell growth inhibition %
In short: as §1

HT29 = conditions: Homo sapiens, HT-29, read-out: Cell growth inhibition %
In short: as §1

IGROV1 = conditions: Homo sapiens, IGROV-1, read-out: Cell growth inhibition %
In short: as §1

KM12 = conditions: Homo sapiens, read-out: Cell growth inhibition %
In short: as §1

LOX IMVI = conditions: Homo sapiens, read-out: Cell growth inhibition %
In short: as §1

M14 = conditions: Homo sapiens, read-out: Cell growth inhibition %
In short: as §1

MALME-3M = conditions: Homo sapiens, read-out: Cell growth inhibition %
In short: as §1

MCF7 = conditions: Homo sapiens, read-out: Cell growth inhibition %
In short: as §1

MDA-MB-231/ATCC = conditions: Homo sapiens, read-out: Cell growth inhibition %
In short: as §1

NCI-H23 = conditions: Homo sapiens, read-out: Cell growth inhibition %
In short: as §1

NCI-H322M = conditions: Homo sapiens, read-out: Cell growth inhibition %
In short: as §1

NCI-H460 = conditions: Homo sapiens, read-out: Cell growth inhibition %
In short: as §1

OVCAR-4 = conditions: Homo sapiens, read-out: Cell growth inhibition %
In short: as §1

OVCAR-5 = conditions: Homo sapiens, read-out: Cell growth inhibition %
In short: as §1

OVCAR-8 = conditions: Homo sapiens, read-out: Cell growth inhibition %
In short: as §1

PC-3 = conditions: Homo sapiens, read-out: Cell growth inhibition %
In short: as §1

SF-295 = conditions: Homo sapiens, read-out: Cell growth inhibition %
In short: as §1

SF-539 = conditions: Homo sapiens, read-out: Cell growth inhibition %
In short: as §1

SK-MEL-28 = conditions: Homo sapiens, read-out: Cell growth inhibition %
In short: as §1

SK-MEL-5 = conditions: Homo sapiens, read-out: Cell growth inhibition %
In short: as §1

SK-OV-3 = conditions: Homo sapiens, read-out: Cell growth inhibition %
In short: as §1

SNB-19 = conditions: Homo sapiens, read-out: Cell growth inhibition %
In short: as §1

SW-620 = conditions: Homo sapiens, read-out: Cell growth inhibition %
In short: as §1

TK-10 = conditions: Homo sapiens, read-out: Cell growth inhibition %
In short: as §1

UACC-257 = conditions: Homo sapiens, read-out: Cell growth inhibition %
In short: as §1

[1] = A549/ATCC (Non-Small Cell Lung Cancer), NCI one dose 10 µM
[2] = COLO 205 (Colon Cancer), NCI one dose 10 µM
[3] = DU-145 (Prostate Cancer), NCI one dose 10 µM
[4] = HCC-2998 (Colon Cancer), NCI one dose 10 µM
[5] = HCT-15 (Colon Cancer), NCI one dose 10 µM
[6] = HL-60(TB) (Leukemia), NCI one dose 10 µM
[7] = HOP-92 (Non-Small Cell Lung Cancer), NCI one dose 10 µM
[8] = HT29 (Colon Cancer), NCI one dose 10 µM
[9] = IGROV1 (Ovarian Cancer), NCI one dose 10 µM
[10] = KM12 (Colon Cancer), NCI one dose 10 µM
[11] = LOX IMIV (Melanoma), NCI one dose 10 µM
[12] = M14 (Melanoma), NCI one dose 10 µM
[13] = MALME-3M (Melanoma), NCI one dose 10 µM
[14] = MCF7 (Breast Cancer), NCI one dose 10 µM
[15] = MDA-MB-231/ATCC (Breast Cancer), NCI one dose 10 µM
[16] = NCI-H23 (Non-Small Cell Lung Cancer), NCI one dose 10 µM
[17] = NCI-H322M (Non-Small Cell Lung Cancer), NCI one dose 10 µM
[18] = NCI-H460 (Non-Small Cell Lung Cancer), NCI one dose 10 µM
[19] = OVCAR-4 (Ovarian Cancer), NCI one dose 10 µM
[20] = OVCAR-5 (Ovarian Cancer), NCI one dose 10 µM
[21] = OVCAR-8 (Ovarian Cancer), NCI one dose 10 µM
[22] = PC-3 (Prostate Cancer), NCI one dose 10 µM
[23] = SF-295 (CNS Cancer), NCI one dose 10 µM
[24] = SF-539 (CNS Cancer), NCI one dose 10 µM
[25] = SK-MEL-28 (Melanoma), NCI one dose 10 µM
[26] = SK-MEL-5 (Melanoma), NCI one dose 10 µM
[27] = SK-OV-3 (Ovarian Cancer), NCI one dose 10 µM
[28] = SNB-19 (CNS Cancer), NCI one dose 10 µM
[29] = SW-620 (Colon Cancer), NCI one dose 10 µM
[30] = TK-10 (Renal Cancer), NCI one dose 10 µM
[31] = UACC-257 (Melanoma), NCI one dose 10 µM

SMILES: COc1ccc(-c2nc3cc(-c4nnc(SCC(=O)Nc5ccc(C(=O)/C=C/c6cc(OC)c(OC)c(OC)c6)cc5)o4)ccc3[nH]2)cc1 [Compound 7o, 2-{5-[2-(4-Methoxyphenyl)-1 H-benzo[d]imidazol-5-yl]-1,3,4-oxadiazol-2-ylthio}-N-{4-[(E)-3-(3,4,5-trimethoxyphenyl)acryloyl]phenyl}acetamide]
- inhibition at 10 µM (A549/ATCC; A549/ATCC, Non-Small Cell Lung Cancer, NCI one dose): 0%
- inhibition at 10 µM (COLO 205; COLO 205, Colon cancer, NCI one dose): 0%
- inhibition at 10 µM (DU-145; DU-145, Prostate Cancer, NCI one dose): 0%
- inhibition at 10 µM (HCC-2998; HCC-2998, Colon cancer, NCI one dose): 0%
- inhibition at 10 µM (HCT-15; HCT-15, Colon cancer, NCI one dose): 0%
- inhibition at 10 µM (HL-60(TB); HL-60(TB), Leukemia, NCI one dose): 0%
- inhibition at 10 µM (HOP-92; HOP-92, Non-Small Cell Lung Cancer, NCI one dose): 0%
- inhibition at 10 µM (HT29; HT29, Colon cancer, NCI one dose): 0%
- inhibition at 10 µM (IGROV1; IGROV1, Ovarian Cancer, NCI one dose): 0%
- inhibition at 10 µM (KM12; KM12, Colon cancer, NCI one dose): 0%
- inhibition at 10 µM (LOX IMVI; Melanoma, NCI one dose): 22.9%
- inhibition at 10 µM (M14; M14, Melanoma, NCI one dose): 0%
- inhibition at 10 µM (MALME-3M; MALME-3M, Melanoma, NCI one dose): 3.93%
- inhibition at 10 µM (MCF7; MCF7, Breast cancer, NCI one dose): 18.4%
- inhibition at 10 µM (MDA-MB-231/ATCC; MDA-MB-231/ATCC, Breast cancer, NCI one dose): 2.18%
- inhibition at 10 µM (NCI-H23; NCI-H23, Non-Small Cell Lung Cancer, NCI one dose): 0%
- inhibition at 10 µM (NCI-H322M; NCI-H322M, Non-Small Cell Lung Cancer, NCI one dose): 0%
- inhibition at 10 µM (NCI-H460; NCI-H460, Non-Small Cell Lung Cancer, NCI one dose): 0%
- inhibition at 10 µM (OVCAR-4; OVCAR-4, Ovarian Cancer, NCI one dose): 0%
- inhibition at 10 µM (OVCAR-5; OVCAR-5, Ovarian Cancer, NCI one dose): 0%
- inhibition at 10 µM (OVCAR-8; OVCAR-8, Ovarian Cancer, NCI one dose): 0%
- inhibition at 10 µM (PC-3; PC-3, Prostate Cancer, NCI one dose): 0%
- inhibition at 10 µM (SF-295; SF-295, CNS Cancer, NCI one dose): 0%
- inhibition at 10 µM (SF-539; SF-539, CNS Cancer, NCI one dose): 2.1%
- inhibition at 10 µM (SK-MEL-28; SK-MEL-28, Melanoma, NCI one dose): 0%
- inhibition at 10 µM (SK-MEL-5; SK-MEL-5, Melanoma, NCI one dose): 0.99%
- inhibition at 10 µM (SK-OV-3; SK-OV-3, Ovarian Cancer, NCI one dose): 0%
- inhibition at 10 µM (SNB-19; SNB-19, CNS Cancer, NCI one dose): 0%
- inhibition at 10 µM (SW-620; SW-620, Colon cancer, NCI one dose): 0%
- inhibition at 10 µM (TK-10; TK-10, Renal cancer, NCI one dose): 0%
- inhibition at 10 µM (UACC-257; UACC-257, Melanoma, NCI one dose): 0%

SMILES: COc1ccc(-c2nc3cc(-c4nnc(SCC(=O)Nc5ccc(C(=O)/C=C/c6ccccc6)cc5)o4)ccc3[nH]2)cc1OC [Compound 7p, 2-{5-[2-(3,4-Dimethoxyphenyl)-1 H-benzo[d]imidazol-5-yl]-1,3,4-oxadiazol-2-ylthio}-N-{4-[(E)-3-phenylacryloyl]phenyl}acetamide]
- inhibition at 10 µM (A549/ATCC; [1]): 0%
- inhibition at 10 µM (COLO 205; [2]): 0%
- inhibition at 10 µM (DU-145; [3]): 0%
- inhibition at 10 µM (HCC-2998; [4]): 0%
- inhibition at 10 µM (HCT-15; [5]): 8.17%
- inhibition at 10 µM (HL-60(TB); [6]): 0%
- inhibition at 10 µM (HOP-92; [7]): 1.64%
- inhibition at 10 µM (HT29; [8]): 0%
- inhibition at 10 µM (IGROV1; [9]): 3.63%
- inhibition at 10 µM (KM12; [10]): 0.98%
- inhibition at 10 µM (LOX IMVI; [11]): 112%
- inhibition at 10 µM (M14; [12]): 0%
- inhibition at 10 µM (MALME-3M; [13]): 2.95%
- inhibition at 10 µM (MCF7; [14]): 21.7%
- inhibition at 10 µM (MDA-MB-231/ATCC; [15]): 8.78%
- inhibition at 10 µM (NCI-H23; [16]): 0.22%
- inhibition at 10 µM (NCI-H322M; [17]): 0%
- inhibition at 10 µM (NCI-H460; [18]): 0%
- inhibition at 10 µM (OVCAR-4; [19]): 0%
- inhibition at 10 µM (OVCAR-5; [20]): 0.55%
- inhibition at 10 µM (OVCAR-8; [21]): 0%
- inhibition at 10 µM (PC-3; [22]): 0%
- inhibition at 10 µM (SF-295; [23]): 5.09%
- inhibition at 10 µM (SF-539; [24]): 16.4%
- inhibition at 10 µM (SK-MEL-28; [25]): 0%
- inhibition at 10 µM (SK-MEL-5; [26]): 4.49%
- inhibition at 10 µM (SK-OV-3; [27]): 0%
- inhibition at 10 µM (SNB-19; [28]): 0%
- inhibition at 10 µM (SW-620; [29]): 0%
- inhibition at 10 µM (TK-10; [30]): 0%
- inhibition at 10 µM (UACC-257; [31]): 0%

SMILES: COc1ccc(-c2nc3cc(-c4nnc(SCC(=O)Nc5ccc(C(=O)/C=C/c6ccc(Cl)cc6)cc5)o4)ccc3[nH]2)cc1OC [Compound 7q, 2-{5-[2-(3,4-Dimethoxyphenyl)-1 H-benzo[d]imidazol-5-yl]-1,3,4-oxadiazol-2-ylthio}-N-{4-[(E)-3-(4-chlorophenyl)acryloyl]phenyl}acetamide]
- inhibition at 10 µM (A549/ATCC; [1]): 0%
- inhibition at 10 µM (COLO 205; [2]): 0%
- inhibition at 10 µM (DU-145; [3]): 0%
- inhibition at 10 µM (HCC-2998; [4]): 0%
- inhibition at 10 µM (HCT-15; [5]): 2.92%
- inhibition at 10 µM (HL-60(TB); [6]): 11.3%
- inhibition at 10 µM (HOP-92; [7]): 0%
- inhibition at 10 µM (HT29; [8]): 0%
- inhibition at 10 µM (IGROV1; [9]): 8.1%
- inhibition at 10 µM (KM12; [10]): 0%
- inhibition at 10 µM (LOX IMVI; [11]): 96.8%
- inhibition at 10 µM (M14; [12]): 0%
- inhibition at 10 µM (MALME-3M; [13]): 4.86%
- inhibition at 10 µM (MCF7; [14]): 24.1%
- inhibition at 10 µM (MDA-MB-231/ATCC; [15]): 4.84%
- inhibition at 10 µM (NCI-H23; [16]): 0%
- inhibition at 10 µM (NCI-H322M; [17]): 4.21%
- inhibition at 10 µM (NCI-H460; [18]): 0%
- inhibition at 10 µM (OVCAR-4; [19]): 0%
- inhibition at 10 µM (OVCAR-5; [20]): 4.8%
- inhibition at 10 µM (OVCAR-8; [21]): 0%
- inhibition at 10 µM (PC-3; [22]): 2.29%
- inhibition at 10 µM (SF-295; [23]): 1.96%
- inhibition at 10 µM (SF-539; [24]): 16.2%
- inhibition at 10 µM (SK-MEL-28; [25]): 0%
- inhibition at 10 µM (SK-MEL-5; [26]): 2.38%
- inhibition at 10 µM (SK-OV-3; [27]): 0%
- inhibition at 10 µM (SNB-19; [28]): 0%
- inhibition at 10 µM (SW-620; [29]): 0%
- inhibition at 10 µM (TK-10; [30]): 0%
- inhibition at 10 µM (UACC-257; [31]): 0%
